Source: patent US20050222406A1, “Condensed palatinose in hydrogenated form” (priority 2002, published 2005)

Experiments:
[1] = system: glucoamylase/maltase (GM) enzyme complex; test: Cleavability by small-intestine α-glucosidases, GM complex; format: in vitro ADME, porcine; conditions: 2 hours, 37° C.
Experimental: Mixing was followed by incubation at 37° C.

[2] = system: saccharase/isomaltase (SI) enzyme complex; test: Cleavability by small-intestine α-glucosidases, SI complex; conditions: 2 hours, 37° C.
Experimental: The saccharase/isomaltase (SI) and glucoamylase/-maltase (GM) enzyme complexes were isolated from porcine small intestine by the method of H. Heymann (Dissertation, Hannover, 1991).
• triethanolamine (TRA) buffer, 0.1 M, pH 7.0 • saccharide, 1% strength solution in TRA buffer • maltose or sucrose, as control substances, 1% strength in TRA buffer • mucosa enzyme, dissolved in TRA buffer Reaction Mixture:
1.2 ml of the carbohydrate solution, at a controlled temperature of 37° C., were admixed with 0.7 U of the saccharase/isomaltose or glucoamylase/maltase enzyme complex, respectively, at t=0. Mixing was followed by incubation at 37° C. The reaction was stopped after 2 hours by heating at 95° C. for 15 minutes. The monosaccharides formed and also the test substances used were assayed by HPAEC.

[3] = Stability in the stomach: rate of hydrolysis at pH 2.0; format: physicochemical; conditions: pH 2.0 (0.01 M HCl), 37° C., 1% solution
Experimental: The stability of a substance on passage through the stomach can be ascertained by determining the rate of hydrolysis at a pH of 2.0, using sucrose and 1-kestose as controls.
Samples were taken from the reaction mixture after 60, 120 and 180 minutes. They were analyzed by means of HPAEC techniques.
Report as hydrolysis rates in %

SMILES	hydrolysis by the GM enzyme complex [1]	hydrolysis by the SI enzyme complex [2]	hydrolysis rate ([3]; incubation time 0 min.) [%]	hydrolysis rate ([3]; incubation time 60 min.) [%]	hydrolysis rate ([3]; incubation time 120 min.) [%]	hydrolysis rate ([3]; incubation time 180 min.) [%]
OC[C@H]1O[C@H](O[C@H]2[C@H](O)[C@@H](O)C(O)O[C@@H]2CO)[C@H](O)[C@@H](O)[C@@H]1O (mixture of isomers) [Maltose, maltose]	virtually complete hydrolysis	virtually complete hydrolysis				
OC[C@H]1O[C@@](CO)(OC[C@@]2(O[C@H]3O[C@H](CO)[C@@H](O)[C@H](O)[C@H]3O)O[C@H](CO)[C@@H](O)[C@@H]2O)[C@@H](O)[C@@H]1O [1-Kestose, 1-kestose]			0	11	25	36
OC[C@H]1O[C@@](CO)(O[C@H]2O[C@H](CO)[C@@H](O)[C@H](O)[C@H]2O)[C@@H](O)[C@@H]1O [Sucrose, sucrose]		virtually complete hydrolysis	0	2	5	8
